Laboratory results: patent publication US7501423B2, “Tubulin inhibitor and process for its preparation” (Wyeth, priority 2005, dated 2009)
Counter-ions that a name gives are not always drawn.

Assay: hygroscopic character of the salt forms
Assay type: physicochemical
Settings: solid salt form; no method or figures given

Compound	hygroscopicity (hygroscopic character of the salt)
6-chloro-5-{2,6-difluoro-4-[3-(methylamino)propoxy]phenyl}-2-pyrazin-2-yl-N-[(1S)-2,2,2-trifluoro-1-methylethyl]pyrimidin-4-amine hemifumarate	essentially avoids the disadvantage of the hygroscopic character
CNCCCOc1cc(F)c(-c2c(Cl)nc(-c3cnccn3)nc2N[C@@H](C)C(F)(F)F)c(F)c1 [hydrochloride, 6-chloro-5-{2,6-difluoro-4-[3-(methylamino)propoxy]phenyl}-2-pyrazin-2-yl-N-[(1S)-2,2,2-trifluoro-1-methylethyl]pyrimidin-4-amine]	very hygroscopic
